Experimental data: patent US9388162B2, “Substituted morphinans and the use thereof” (Purdue Pharma L.P., priority 2012, dated 2016)

Tests used:
κ opioid receptor = κ opioid receptor (Homo sapiens (Human), UniProt P41145); assay: κ-opioid receptor [35S]GTPγS functional assay, U-2 OS cells; type: biochemical; conditions: κ GTP; for EC50: read-out: Activity Response κ EC50 (nM) [mean ± SEM]; for Emax: relative to U69,593, read-out: Activity Response κ Emax (%)
Description: Membranes from HEK-293 cells, CHO or U-2 OS cells expressing the recombinant human kappa opioid receptor (κ) were prepared by lysing cells in ice cold hypotonic buffer (2.5 mM MgCl2, 50 mM HEPES, pH 7.4) (10 mL/10 cm dish) followed by homogenization with a tissue grinder/Teflon pestle. Membranes were collected by centrifugation at 30,000×g for 15 min at 4° C. and pellets were resuspended in hypotonic buffer to a final concentration of 1-3 mg/mL. Protein concentrations were determined using the BioRad protein assay reagent with bovine serum albumen as standard. Aliquots of κ receptor membranes were stored at −80° C.
Functional [^35S]GTPγS binding assays were conducted as follows. κ opioid receptor membrane solution was prepared by sequentially adding final concentrations of 0.026 μg/μl κ membrane protein (in-house), 10 μg/mL saponin, 3 μM GDP and 0.20 nM [^35S]GTPγS to binding buffer (100 mM NaCl, 10 mM MgCl2, 20 mM HEPES, pH 7.4) on ice. The prepared membrane solution (190 μl/well) was transferred to 96-shallow well polypropylene plates containing 10 μl of 20× concentrated stock solutions of agonist prepared in DMSO. Plates were incubated for 30 min at a temperature of about 25° C. with shaking. Reactions were terminated by rapid filtration onto 96-well Unifilter GF/B filter plates (Perkin Elmer, Shelton, Conn.) using a 96-well tissue harvester (Packard) and followed by three filtration washes with 200 μl ice-cold binding buffer (10 mM NaH2PO4, 10 mM Na2HPO4, pH 7.4). Filter plates were subsequently dried at 50° C. for 2-3 hours. Fifty μl/well scintillation cocktail (Perkin Elmer, Shelton, Conn.) was added and plates were counted in a Packard Top-Count for 1 min/well.
κ GTP EC50 is the concentration of a compound providing 50% of the maximal response for the compound at a κ receptor.
κ GTP Emax (%) is the maximal effect elicited by a compound relative to the effect elicited by U69,593.
In TABLE 3, binding affinity of certain Compounds of the Invention to the μ- and κ-opioid receptors was determined as described above. In TABLE 4, activity response of certain Compounds of the Invention to the μ- and κ-opioid receptors was determined as described above for functional assays using HEK-293 cells. In TABLE 5, activity response of certain Compounds of the Invention to the μ- and κ-opioid receptors was determined as described above using U-2 OS cells.

μ-opioid receptors = μ-opioid receptors (Homo sapiens (Human), UniProt P35372); assay: μ-opioid receptor [35S]GTPγS functional assay, U-2 OS cells; type: biochemical; conditions: μ GTP; for EC50: read-out: Activity Response μ EC50 (nM) [mean ± SEM]; for Emax: relative to DAMGO, read-out: Activity Response μ Emax (%)
Description: [^35S]GTPγS functional assays were conducted using freshly thawed μ-receptor membranes prepared from a cell line expressing recombinant μ opioid receptor in a HEK-293, CHO or U-2 OS cell background or purchased from a commercial source (Perkin Elmer, Shelton, Conn.; or DiscovRx, Fremont, Calif.). Assay reactions were prepared by sequentially adding the following reagents to binding buffer (100 mM NaCl, 10 mM MgCl2, 20 mM HEPES, pH 7.4) on ice (final concentrations indicated): membrane protein (0.026 mg/mL), saponin ([…]), GDP ([…]) and [^35S]GTPγS (0.20 nM; Perkin Elmer, Shelton, Conn.). The prepared membrane solution (190 μl/well) was transferred to 96-shallow well polypropylene plates containing 10 μl of 20× concentrated stock solutions of the agonist [D-Ala^2, N-methyl-Phe^4 Gly-ol^5]-enkephalin (DAMGO) prepared in dimethyl sulfoxide (DMSO). Plates were incubated for 30 min at about 25° C. with shaking. Reactions were terminated by rapid filtration onto 96-well Unifilter GF/B filter plates (Perkin Elmer, Shelton, Conn.) using a 96-well tissue harvester (Perkin Elmer, Shelton, Conn.) followed by three filtration washes with 200 μl of ice-cold wash buffer (10 mM NaH2PO4, 10 mM Na2HPO4, pH 7.4). Filter plates were subsequently dried at 50° C. for 2-3 hours. BetaScint scintillation cocktail (Perkin Elmer, Shelton, Conn.) was added (50 μl/well) and plates were counted using a Packard Top-Count for 1 min/well. Data were analyzed using the sigmoidal dose-response curve fitting functions in GraphPad PRISM v. 3.0, or an in-house function for non-linear, sigmoidal dose-response curve-fitting.
μ GTP EC50 is the concentration of a compound providing 50% of the maximal response for the compound at a μ-opioid receptor.
μ GTP Emax (%) is the maximal effect elicited by a compound relative to the effect elicited by DAMGO, a standard μ agonist. Generally, the μ GTP Emax (%) value measures the efficacy of a compound to treat or prevent pain or other Conditions.
The following tables provide results on the efficacy of binding and activity response of exemplified Compounds of the Invention at the μ- and κ-opioid receptors. In TABLE 3, binding affinity of certain Compounds of the Invention to the μ- and κ-opioid receptors was determined as described above. In TABLE 4, activity response of certain Compounds of the Invention to the μ- and κ-opioid receptors was determined as described above for functional assays using HEK-293 cells. In TABLE 5, activity response of certain Compounds of the Invention to the μ- and κ-opioid receptors was determined as described above using U-2 OS cells.

SMILES | EC50 (κ opioid receptor) [nM] | Emax (κ opioid receptor) [%] | EC50 (μ-opioid receptors) [nM] | Emax (μ-opioid receptors) [%]
CC(C)(C)C(=O)N[C@H]1C[C@@]2(O)[C@H]3Cc4ccc(O)cc4[C@@]2(CCN3CC2CC2)CC1=O [Compound 32, N-((4bR,7S,8aS,9R)-11-(cyclopropylmethyl)-3,8a-dihydroxy-6-oxo-6,7,8,8a,9,10-hexahydro-5H-9,4b-(epiminoethano)phenanthren-7-yl)pivalamide] | 17.5 ± 2.66 | 113 ± 3.61 | 18.6 ± 8.05 | 11.3 ± 0.88
CC(C)CC(=O)N[C@H]1C[C@@]2(O)[C@H]3Cc4ccc(O)cc4[C@@]2(CCN3CC2CC2)CC1=O [Compound 33, N-((4bR,7S,8aS,9R)-11-(cyclopropylmethyl)-3,8a-dihydroxy-6-oxo-6,7,8,8a,9,10-hexahydro-5H-9,4b-(epiminoethano)phenanthren-7-yl)-3-methylbutanamide] | 36.1 ± 3.14 | 52 ± 4.93 | > 200000 | 2.5
O=C(N[C@H]1C[C@@]2(O)[C@H]3Cc4ccc(O)cc4[C@@]2(CCN3CC2CC2)CC1=O)C1CC1 [Compound 34, N-((4bR,7S,8aS,9R)-11-(cyclopropylmethyl)-3,8a-dihydroxy-6-oxo-6,7,8,8a,9,10-hexahydro-5H-9,4b-(epiminoethano)phenanthren-7-yl)cyclopropanecarboxamide] | 12.6 ± 2.04 | 101 ± 3.33 | > 200000 | 6.33 ± 2.19
O=C(N[C@H]1C[C@@]2(O)[C@H]3Cc4ccc(O)cc4[C@@]2(CCN3CC2CC2)CC1=O)C1CCCC1 [Compound 35, N-((4bR,7S,8aS,9R)-11-(cyclopropylmethyl)-3,8a-dihydroxy-6-oxo-6,7,8,8a,9,10-hexahydro-5H-9,4b-(epiminoethano)phenanthren-7-yl)cyclopentanecarboxamide] | 13.6 ± 1.04 | 85.7 ± 2.4 | > 200000 | 2
O=C(N[C@H]1C[C@@]2(O)[C@H]3Cc4ccc(O)cc4[C@@]2(CCN3CC2CC2)CC1=O)c1ccccc1 [Compound 36, N-((4bR,7S,8aS,9R)-11-(cyclopropylmethyl)-3,8a-dihydroxy-6-oxo-6,7,8,8a,9,10-hexahydro-5H-9,4b-(epiminoethano)phenanthren-7-yl)benzamide] | 4.28 ± 0.6 | 99 ± 4.73 | 12.7 ± 2.92 | 20.3 ± 0.33
CC[C@H](C)C(=O)N[C@H]1C[C@@]2(O)[C@H]3Cc4ccc(O)cc4[C@@]2(CCN3CC2CC2)CC1=O [Compound 37, (S)-N-((4bR,7S,8aS,9R)-11-(cyclopropylmethyl)-3,8a-dihydroxy-6-oxo-6,7,8,8a,9,10-hexahydro-5H-9,4b-(epiminoethano)phenanthren-7-yl)-2-methylbutanamide] | 42.1 ± 7.56 | 71.3 ± 5.7 | > 200000 | 6 ± 1.53
O=C(N[C@H]1C[C@@]2(O)[C@H]3Cc4ccc(O)cc4[C@@]2(CCN3CC2CC2)CC1=O)C1CCCCC1 [Compound 38, N-((4bR,7S,8aS,9R)-11-(cyclopropylmethyl)-3,8a-dihydroxy-6-oxo-6,7,8,8a,9,10-hexahydro-5H-9,4b-(epiminoethano)phenanthren-7-yl)cyclohexanecarboxamide] | 2.3 ± 0.25 | 95.3 ± 5.21 | 10.3 ± 1.72 | 40.3 ± 1.45
COc1ccc2c(c1)[C@]13CCN(C)[C@H](C2)[C@]1(O)C[C@H](CCOCc1ccccc1)C(=O)C3 [Compound 50, (4bR,7S,8aS,9R)-7-(2-(benzyloxy)ethyl)-8a-hydroxy-3-methoxy-11-methyl-8,8a,9,10-tetrahydro-5H-9,4b-(epiminoethano)phenanthren-6(7H)-one] | 7900 ± 707 | 74 ± 5.29 | 148 ± 10.4 | 102 ± 1.67
O=C1C[C@]23CCN(CC4CC4)[C@H](Cc4ccc(OCc5ccccc5)cc42)[C@]3(O)C[C@@H]1CCO [Compound 58, (4bR,7S,8aS,9R)-3-(benzyloxy)-11-(cyclopropylmethyl)-8a-hydroxy-7-(2-hydroxyethyl)-8,8a,9,10-tetrahydro-5H-9,4b-(epiminoethano)phenanthren-6(7H)-one] | 839 ± 9.9 | 96 ± 6.35 | 787 ± 242 | 43.7 ± 3.93
CCOC(=O)C[C@H]1C[C@@]2(O)[C@H]3Cc4ccc(OC)cc4[C@@]2(CCN3C)CC1=O [Compound 59, ethyl 2-((4bR,7R,8aS,9R)-8a-hydroxy-3-methoxy-11-methyl-6-oxo-6,7,8,8a,9,10-hexahydro-5H-9,4b-(epiminoethano)phenanthren-7-yl)acetate] | > 200000 | 59 ± 1.53 | 11500 ± 903 | 100 ± 4.62
CN1CC[C@]23CC(=O)[C@@H](CC(=O)O)C[C@@]2(O)[C@H]1Cc1ccc(O)cc13 [Compound 61, 2-((4bR,7R,8aS,9R)-3,8a-dihydroxy-11-methyl-6-oxo-6,7,8,8a,9,10-hexahydro-5H-9,4b-(epiminoethano)phenanthren-7-yl)acetic acid] | 963 ± 83 | 90 ± 10 | 466 ± 81 | 77.3 ± 2.03
COc1ccc2c(c1)[C@]13CCN(CC4CC4)[C@H](C2)[C@]1(O)C/C(=C\CC(C)C)C(=O)C3 [Compound 62, (4bR,8aS,9R,E)-11-(cyclopropylmethyl)-8a-hydroxy-3-methoxy-7-(3-methylbutylidene)-8,8a,9,10-tetrahydro-5H-9,4b-(epiminoethano)phenanthren-6(7H)-one] | 3070 ± 233 | 62.7 ± 4.37 | > 200000 | 27.5
O=C1C[C@]23CCN(CC4CC4)[C@H](Cc4ccc(O)cc42)[C@]3(O)C[C@@H]1CC1CCCC1 [Compound 65, (4bR,7S,8aS,9R)-7-(cyclopentylmethyl)-11-(cyclopropylmethyl)-3,8a-dihydroxy-8,8a,9,10-tetrahydro-5H-9,4b-(epiminoethano)phenanthren-6(7H)-one] | 2.57 ± 0.24 | 101 ± 5.51 | > 200000 | 4
CCC(C)C[C@H]1C[C@@]2(O)[C@H]3Cc4ccc(O)cc4[C@@]2(CCN3CC2CC2)CC1=O (stereo partly drawn) [Compound 66, (4bR,7S,8aS,9R)-11-(cyclopropylmethyl)-3,8a-dihydroxy-7-(2-methylbutyl)-8,8a,9,10-tetrahydro-5H-9,4b-(epiminoethano)phenanthren-6(7H)-one] | 7.57 ± 1.14 | 102 ± 1.33 | > 200000 | 2.5
CCCC[C@H]1C[C@@]2(O)[C@H]3Cc4ccc(O)cc4[C@@]2(CCN3CC2CC2)CC1=O [Compound 67, (4bR,7S,8aS,9R)-7-butyl-11-(cyclopropylmethyl)-3,8a-dihydroxy-8,8a,9,10-tetrahydro-5H-9,4b-(epiminoethano)phenanthren-6(7H)-one] | 3 ± 0.12 | 101 ± 1.73 | > 200000 | 2
